Reference: US9376425B2, “Heterocyclic compounds as MDM2 inhibitors for the treatment of cancer” (AMGEN INC., priority 2011, dated 2016)

Each compound was assayed against T1, human MDM2 (GST-hMDM2 1-188), interaction with biotinylated-p53 (1-83) (Homo sapiens, UniProt Q00987) (assay: improved HTRF assay (HTRF2 assay), inhibition of HDM2-p53 interaction). Conditions: 0.2 nM GST-hMDM2, 0.5 nM biotinylated-p53, 100 mM KF.
T1 construct: Amino acid residues 1-188 of human MDM2 were expressed; made in house; host or cells: Escherichia coli
T1 sequence (Q00987 1-188): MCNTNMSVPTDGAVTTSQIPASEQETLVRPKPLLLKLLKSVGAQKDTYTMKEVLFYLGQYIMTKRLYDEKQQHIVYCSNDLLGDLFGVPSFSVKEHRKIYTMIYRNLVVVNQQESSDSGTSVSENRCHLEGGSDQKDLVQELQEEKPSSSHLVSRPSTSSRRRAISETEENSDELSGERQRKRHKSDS
Type: binding
Procedure, shortened: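 Time-resolved fluorescence (HTRF) read after >4 h equilibration with SA-XLent/anti-GST cryptate/KF detection reagents. Reaction: compound plus GST-hMDM2 for 20 min at room temperature, then E. coli-expressed biotinylated p53 residues 1-83 for 60 min, 2% DMSO final. Inhibition expressed versus nutlin-3.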

| SMILES | IC50 |
| --- | --- |
| CC[C@@H](CS(=O)(=O)C(C)(C)C)N1C(=O)[C@@H](Cc2nnn[nH]2)O[C@H](c2cccc(Cl)c2)[C@H]1c1ccc(Cl)cc1 [Example 382, (2R,5R,6R)-2-((1H-Tetrazol-5-yl)methyl)-4-((S)-1-(tert-butylsulfonyl)butan-2-yl)-6-(3-chlorophenyl)-5-(4-chlorophenyl)morpholin-3-one] | < 1 nM |
| CC[C@@H](CS(=O)(=O)C(C)(C)C)N1C(=O)[C@@H](CC(=O)O)O[C@H](c2cccc(Cl)c2)[C@H]1c1ccc(Cl)cc1F (single isomer, unassigned) [Example 317, 2-((2R,5R,6R)-4-((S)-1-(tert-Butylsulfonyl)butan-2-yl)-5-(4-chloro-2-fluorophenyl)-6-(3-chlorophenyl)-3-oxomorpholin-2-yl)acetic acid or 2-((2S,5R,6R)-4-((S)-1-(tert-butylsulfonyl)butan-2-yl)-5-(4-chloro-2-fluorophenyl)-6-(3-chlorophenyl)-3-oxomorpholin-2-yl)acetic acid] | 3 nM |
| CC[C@@H](CS(=O)(=O)C(C)(C)C)N1C(=O)[C@H](Cc2nnn[nH]2)O[C@H](c2cccc(Cl)c2)[C@H]1c1ccc(Cl)cc1 [Example 383, (2S,5R,6R)-2-((1H-Tetrazol-5-yl)methyl)-4-((S)-1-(tert-butylsulfonyl)butan-2-yl)-6-(3-chlorophenyl)-5-(4-chlorophenyl)morpholin-3-one] | < 1 nM |
| C[C@@H](CS(=O)(=O)C(C)(C)C)N1C(=O)[C@H](CC(N)=O)O[C@H](c2cccc(Cl)c2)[C@H]1c1ccc(Cl)cc1 (single isomer, unassigned) [Example 226, 2-((2S,5R,6R)-4-((S)-1-(tert-butylsulfonyl)propan-2-yl)-6-(3-chlorophenyl)-5-(4-chlorophenyl)-3-oxomorpholin-2-yl)acetamide or 2-((2R,5R,6R)-4-((S)-1-(tert-butylsulfonyl)propan-2-yl)-6-(3-chlorophenyl)-5-(4-chlorophenyl)-3-oxomorpholin-2-yl)acetamide] | 11 nM |
| CC[C@@H](CS(=O)(=O)C(C)C)N1C(=O)[C@H](CC(=O)O)O[C@H](c2cc(F)cc(Cl)c2)[C@H]1c1ccc(Cl)cc1 (single isomer, unassigned) [Example 125, 2-((2S,5R,6R)-6-(3-Chloro-5-fluorophenyl)-5-(4-chlorophenyl)-4-((S)-1-(isopropylsulfonyl)butan-2-yl)-3-oxomorpholin-2-yl)acetic acid or 2-((2R,5R,6R)-6-(3-Chloro-5-fluorophenyl)-5-(4-chlorophenyl)-4-((S)-1-(isopropylsulfonyl)butan-2-yl)-3-oxomorpholin-2-yl)acetic acid] | 11 nM |
| CC[C@@H](CS(=O)(=O)C1CCC1)N1C(=O)[C@@H](CC(=O)O)O[C@H](c2cccc(Cl)c2)[C@H]1c1ccc(Cl)cc1 (single isomer, unassigned) [Example 142, 2-((2R,5R,6R)-6-(3-chlorophenyl)-5-(4-chlorophenyl)-4-((S)-1-(cyclobutylsulfonyl)butan-2-yl)-3-oxomorpholin-2-yl)acetic acid or 2-((2S,5R,6R)-6-(3-chlorophenyl)-5-(4-chlorophenyl)-4-((S)-1-(cyclobutylsulfonyl)butan-2-yl)-3-oxomorpholin-2-yl)acetic acid] | 7 nM |
| CC(C)(C)S(=O)(=O)C[C@H](C1CC1)N1C(=O)[C@@](C)(CC(=O)O)O[C@H](c2cccc(Cl)c2)[C@H]1c1ccc(Cl)c(F)c1 (single isomer, unassigned) [Example 412, 2-((2R,5R,6R)-4-((S)-2-(tert-Butylsulfonyl)-1-cyclopropylethyl)-5-(4-chloro-3-fluorophenyl)-6-(3-chlorophenyl)-2-methyl-3-oxomorpholin-2-yl)acetic acid or 2-((2S,5R,6R)-4-((S)-2-(tert-butylsulfonyl)-1-cyclopropylethyl)-5-(4-chloro-3-fluorophenyl)-6-(3-chlorophenyl)-2-methyl-3-oxomorpholin-2-yl)acetic acid] | 11 nM |
